We go through 3 molecules from paper PMC3747139 (PLoS ONE, 2013).

Structures are written as SMILES. Read-outs that look alike come from different tables or passages of the source. Marks after values point to notes of the source that are not given here.

As a reminder, the ΔTm is the shift of the melting midpoint relative to a reference.

One series deals with B16F10 cells. As to the kind of experiment: MTT assay. In kind it is cell-based, human. Particulars: Mus musculus, B16-F10, B16F10 cells, 24 h and 48 h, read-out: half maximal inhibitory concentration (IC50). As to the method:
Normal human cell lines (CRL-2115, CRL-2120) as well as human cancer cell lines (NCM-460, He La, MCF-7, B16F10 and A549) were cultured according to the supplier's recommendations. To study the cytotoxicity of the ligands, after 80% confluence, cells were trypsinized with 0.1% trypsin-EDTA and harvested by centrifugation at 500× g. Serial dilutions of cells were made from 1×10^6 to 1×10^3 cells per ml. The cells were seeded in triplicate in a 96 well plate. The suspended cells were treated with 50 µM, 100 µM, 150 µM, 200 µM, 250 µM and 300 µM of each ligand, at two different time points (24 h and 48 h). Normal as well as tumor cells to which no ligand was added served as control. After incubation, MTT (100 µl, 5 mg mL^−1) solution was added to each well and the cell viability was determined by measuring the ability of cells to transform MTT to a purple coloured formazan dye. The absorbance of samples at 570 nm was measured using a UV-Visible spectrophotometer. Percentage of viable cells was calculated using the formula given below. [drawing 1] Where the OD570 (sample) corresponds to absorbance obtained from the wells treated with ligands and the OD570 (control) represents the absorbance from the wells in which no ligand was added.
A general note: Tetrazolium assays rely on reduction of a dye to a coloured formazan, in cell work by metabolically active cells.

The nature of series [1]: Cell count assay (trypan blue). Format: cell-based. More on the design: concentration or dose not given beside the values. Particulars: human; for viability at 24 h: read-out: Number of viable cells after 24 h of ligand treatment; for viability at 48 h: read-out: Number of viable cells after 48 h of ligand treatment. Here is the method: Normal and tumor cell lines were seeded at 20000–40000 cells/cm^2 with 0.2 mL/cm^2 media and incubated for 48 h at 37°C, 6% CO2, 95% relative humidity. […] After 24 h and 48 h of incubation, cells were washed with 300 µl PBS or 0.02% EDTA, trypsinized, followed by harvesting at 37°C. 200 µl cell suspension was transferred into 1.5 ml microcentrifuge tube. To the cell suspension, 300 µl PBS followed by 500 µl of 0.4% trypan blue solution was added. To get the homogenised solution, the microcentrifuge tube was gently tapped for 5 min, 20 µl of cell suspension was loaded in to a chamber of the haemocytometer.

The subject of another series is B16F10 melanoma cells. In words: Preclinical study: survival of tumor-induced mice. In kind it is in vivo, C57BL6/J mice. Particulars: 200 µM L1, 125 µM L2, 50 µM L3 on alternate days for 2 weeks. Here is the method: C57BL6/J mice were used from the animal house facility located at CCMB (Hyderabad, India). All animal experimental studies were carried out in strict accordance with the recommendations in the guide for the care and use of laboratory animals of Centre for Cellular and Molecular Biology (CCMB). All the animal experimental protocols were approved by the Institutional Animal Ethical Committee (IAEC) of Centre for Cellular and Molecular Biology (CCMB with Permit number: CPCSEA 20/1999, Ministry of Environment and Forest, Government of India).The protocol was approved by the Institutional Animal Ethical Committee (IAEC) of CCMB (Protocol number: IAEC 16/2012). All the surgery was performed under sodium pentobarbital anaesthesia, and all efforts were made to minimize suffering. C57BL6/J mice, 6–8 weeks old, were subcutaneously injected with 2×10^5 B16F10 melanoma cells, in the […] region. After the tumor attained a size of 500–1000 mm^3 (≈9 days following cancer cell implantation), mice were grouped and treated as follows.
Group (i) was treated with vehicle control (4 mice), group (ii) with 200 µM of L1 (4 mice), group (iii) with 125 µM of L2 (4 mice) and group (iv) with 50 µM of L3 (4 mice). These experiments were repeated thrice and mean values were considered. Size of tumor was measured every day at a fixed time. The tumor sizes were calculated using the formula (0.5 ab^2), where ‘a’ was the largest dimension and ‘b’ was the smallest dimension of the tumor. The experiment was terminated when the average tumor volume of the control/treated group was 10000–12000 mm^3.

The subject of series [2] is telomerase reverse transcriptase (TERT). As to the kind of experiment: Western blot of telomerase expression in tumor tissues. Particulars: tumor tissue of tumor-induced mice, 216 h of treatment. In kind it is in vivo, C57BL6/J mice. Here is the method: Western blot analysis was carried out to study the expression of telomerase in ligand treated as well as untreated tissues of tumor-induced mice. Total proteins were extracted from the tumor tissues into solubilisation buffer (7 M urea, 2 M thiourea, 4% CHAPS, 18 mM Tris–HCl, 14 mM Trizma base, 2 tablets EDTA protease inhibitor, 0.2% Triton-X, 50 mM DTT) following homogenization and sonication. Extracted proteins were quantified against BSA standard using an Amido black assay method. 40 µg of total protein obtained from different time points (48 h, 72 h and 216 h) were electrophoresed on a 10% SDS-PAGE and transferred onto a PVDF membrane using wet-transfer method. Immunoblot analysis of the telomerase reverse transcriptase (TERT) expression was performed using anti-TERT antibody (Pierce, Thermo Scientific) as primary antibody and anti-rabbit HP conjugated secondary antibodies (Pierce, Thermo Scientific). The immuno- blots were scanned using the ECL detection method to estimate the telomerase expression levels in the tissues of tumor-induced mice. The endogenous β-actin expression level was considered as control.
In general terms: A western blot detects proteins with antibodies after separation by electrophoresis.

A further series concerns HQF DNA [d(T2AG3)4]. As to the kind of experiment: SYBR Green melting study with HQF DNA. Format: binding, human. Particulars: for Tm of HQF DNA with ligand: 5 µM HQF DNA, 1 µM ligand, HQF DNA alone 27°C; for Tm: melting temperature of HQF DNA (5 µM) in presence of 1 µM ligand. As to the method:
When quadruplex DNA melts to form ssDNA structure, SG fluorescence intensity gradually reduces as SG has no binding to ssDNA. Each time, 5 µM of HQF DNA [d(T2AG3)4)], 5 µM of dsDNA (prepared by mixing equal concentration of poly-dA-dT and poly-dT-dA), 5 µM ssDNA ( poly dT alone) and 1 µM of each ligand was incubated at 4°C for 16 h, and used for melting studies. […] Affinity, stoichiometry and thermodynamic parameters for quadruplex-ligand complex were studied with 60 µM of ligand and 10 µM of HQF DNA using Microcal VP-ITC (Northampton, MA, USA). Ligand addition to G-quadruplex DNA was made every 180 seconds. Titration experiments were performed thrice and blank correction was made each time to minimize error.

Series [3] deals with HQF DNA (human quadruplex forming DNA), d(TTAGGG)4 (DNA, G4) TTAGGGTTAGGGTTAGGGTTAGGG
As to the kind of experiment: SYBR Green fluorescence melting. Particulars: 1 µM ligand, 5 µM DNA, melting buffer not stated.

The mark [4] stands for this setting: CRL-2115 cells (normal cell line), CRL-2115, 24 h.
[5] abbreviates: CRL-2115 cells (normal cell line), CRL-2115, 48 h.
[6] abbreviates: CRL-2120 cells (normal cell line), CRL-2120, 24 h.
Setting [7] is: CRL-2120 cells (normal cell line), CRL-2120, 48 h.
Where [8] appears, read: NCM-460 cells (normal cell line), NCM-460, 24 h.
The mark [9] stands for this setting: NCM-460 cells (normal cell line), NCM-460, 48 h.

For `Cc1cn([C@H]2C[C@H](N=[N+]=[N-])[C@@H](CO)O2)c(=O)[nH]c1=O` [Ligand L1, 1-(4-azido 5-(hydroxylmethyl)tetrahydrofuran-2-yl)-5-methyl pyrimidi-ne-2,4(1H,3H)-dione, reference compound], the IC50 in the series with B16F10 cells was ~200 µM. Besides, the viability at 24 h in series [1] (setting [4]), in series [1] (setting [6]) and in series [1] (setting [8]) was 80 to 90% each time. Moreover, the viability at 48 h in series [1] (setting [5]), in series [1] (setting [7]) and in series [1] (setting [9]) was 50 to 60% each time. Also, the “Number of days survived” value in the series on B16F10 melanoma cells is listed as 25 (±5) days. The “survival period of treated mice” value with B16F10 melanoma cells is recorded as ~4 weeks. The “percentage of reduction of telomerase expression” value in series [2] came out at 80%. In addition, the “Tm of HQF DNA with ligand” value with HQF DNA [d(T2AG3)4] was determined as 28 °C. The Tm in the series on HQF DNA [d(T2AG3)4] is reported as 28 ^o C. Further, the ΔTm in series [3] (derived from two Tm (28 and 27 °C)) was determined as 1 °C.
`Cc1cn([C@H]2C[C@H](n3cc(-c4ccccc4)nn3)[C@@H](CO)O2)c(=O)[nH]c1=O` [Ligand L2]: in the series on B16F10 cells, the IC50 was ~125 µM. The viability at 24 h in series [1] (setting [4]), in series [1] (setting [6]) and in series [1] (setting [8]) was 80 to 90% each time. For the same molecule, the viability at 48 h in series [1] (setting [5]), in series [1] (setting [7]) and in series [1] (setting [9]) was 50 to 60% in each case. The “Number of days survived” value in the series with B16F10 melanoma cells is recorded as 31 (±4) days. Also, the “survival period of treated mice” value in the series with B16F10 melanoma cells was ~5 weeks. The “percentage of reduction of telomerase expression” value in series [2] was determined as 88%. In addition, in the series on HQF DNA [d(T2AG3)4], the “Tm of HQF DNA with ligand” value amounted to 42 °C. The Tm in the series with HQF DNA [d(T2AG3)4] is 42 ^o C. Further, in series [3] (derived from two Tm (42 and 27 °C)), the ΔTm came out at 15 °C.
As to `Cc1cn([C@H]2C[C@H](n3cc(-c4ccc(Cl)cc4)nn3)[C@@H](CO)O2)c(=O)[nH]c1=O` [Ligand L3, 1-(4-(4-(4-chlorophenly)-1H-1,2,3-triazole-1-yl)-5-(hydroxymethyl)tetrahydrofuran-2-yl)-5-methylpyrimidine-2,3(1H,3H)-dione], the IC50 in the series on B16F10 cells is 50 µM. The viability at 24 h in series [1] (setting [4]), in series [1] (setting [6]) and in series [1] (setting [8]) was 80 to 90% in each case. Besides, the viability at 48 h in series [1] (setting [5]), in series [1] (setting [7]) and in series [1] (setting [9]) was 50 to 60% each time. Also, in the series on B16F10 melanoma cells, the “Number of days survived” value was 40 (±6) days. Moreover, the “survival period of treated mice” value with B16F10 melanoma cells was “about 6 weeks”. Moreover, the “percentage of reduction of telomerase expression” value in series [2] came to 95%. The “Tm of HQF DNA with ligand” value in the series with HQF DNA [d(T2AG3)4] is 52 °C. Moreover, in the series on HQF DNA [d(T2AG3)4], the Tm is given as 52 ^o C. The ΔTm in series [3] (derived from two Tm (52 and 27 °C)) came out at 25 °C.
